pEC50: −log10 of the molar value.

For the experiment, the target named is T1, hAHR (Homo sapiens, UniProt P35869).
T1 construct: expressed in transfected cells
T1 sequence (P35869 11-848): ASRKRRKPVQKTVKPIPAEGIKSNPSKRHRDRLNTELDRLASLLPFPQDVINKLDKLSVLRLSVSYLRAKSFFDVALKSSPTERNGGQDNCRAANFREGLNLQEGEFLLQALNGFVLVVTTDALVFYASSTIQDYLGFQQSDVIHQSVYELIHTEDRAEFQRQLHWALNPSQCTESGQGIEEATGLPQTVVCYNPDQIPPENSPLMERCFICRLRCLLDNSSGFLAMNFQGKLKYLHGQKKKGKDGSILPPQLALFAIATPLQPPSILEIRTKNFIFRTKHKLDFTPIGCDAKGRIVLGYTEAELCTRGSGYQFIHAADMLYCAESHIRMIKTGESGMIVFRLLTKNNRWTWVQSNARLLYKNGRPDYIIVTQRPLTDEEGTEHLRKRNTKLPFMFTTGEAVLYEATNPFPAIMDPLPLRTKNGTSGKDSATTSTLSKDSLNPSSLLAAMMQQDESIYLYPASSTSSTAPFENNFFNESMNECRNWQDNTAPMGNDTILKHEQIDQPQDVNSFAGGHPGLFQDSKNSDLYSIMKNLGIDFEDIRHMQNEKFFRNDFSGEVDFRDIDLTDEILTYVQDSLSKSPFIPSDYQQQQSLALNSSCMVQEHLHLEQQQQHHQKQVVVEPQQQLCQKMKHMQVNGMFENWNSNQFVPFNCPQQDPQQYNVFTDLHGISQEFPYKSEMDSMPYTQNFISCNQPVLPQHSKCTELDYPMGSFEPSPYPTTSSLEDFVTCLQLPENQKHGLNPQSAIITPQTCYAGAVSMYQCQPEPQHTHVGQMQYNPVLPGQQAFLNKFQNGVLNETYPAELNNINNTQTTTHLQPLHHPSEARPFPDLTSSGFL
Kind of experiment: hAHR nuclear translocation assay. It counts as cell-based. The conditions noted are these: Jump-In T-REx HEK293 cells expressing AhR-EGFP; 45 min incubation; ratio of EGFP intensity in nuclear over cytosol; 20-point curve. The protocol:
Stable cell lines were established using Jump-In™ T-REx™ HEK293 Retargeting Kit (Life Technologies). hAhR cDNA was cloned into the pJTI R4 CMV-TO EGFP vector. The EGFP was cloned to the C-terminal of AHR to form AhR-EGFP chimera. The pJTI R4 CMV-TO AhR-EGFP vector was transfected using FuGENE® HD into Jump-In™ T-REx™ HEK293 cells. Transfected cells were selected using 2.5 mg/ml G418 for 10 to 14 days, then expanded, harvested, and suspended in freeze media (FBS with 8% DMSO) at 2×10^7 cells/mL, and aliquots were stored in liquid nitrogen. One day before the assay date, cells were thawed and resuspended in DMEM with 5% FBS in the presence of 1 μg/mL Doxycycline and plated into ploy-L-Lysine coated […]-384 ULTRA Microplates (Perkin Elmer) at 12,000 to 15,000 cells per well and incubated at 37° C. and 5% CO2 overnight. On the assay date, compound was serially diluted (1:2) into 384-well nunc plates with DMSO using acoustic dispensing (ECHO). The dose response was a 20-point curve. Compound was resuspended in 40 μL of DMEM plus 0.1% BSA. The culture media was damped and 25 μL of DMEM plus 0.1% BSA was added, then 25 μL of compound in DMEM plus 0.1% BSA was added into cell plates. Cells were incubated with compounds at 37° C. and 5% CO2 for 45 min.
The final DMSO concentration was 0.2%. The media was damped after 45 minutes incubation. The cells were fixed with 40 μL of cold MeOH (−20° C.) for 20 min. The MeOH was damped and 50 μL of DPBS containing 1 μg/mL Hochst was added into the cell plates. The intensity of EGFP was quantitated by using OPERA PHENIX® or Operetta™ high content image system (Perkin Elmer) with 20× Water Objective and five field per well. The ratio of EGFP fluorescent intensity in nuclear over cytosol was analyzed using a 4-parameter nonlinear logistic equation to determine the potency of AhR agonists.
In general, pEC50 refers to −log10 of the EC50, conventionally taken in molar units. For the compound `Cn1c2c(c(O)c(C(=O)Nc3ccc(F)cn3)c1=O)C(C)(C)CC2` [Example 44, N-(5-Fluoro-2-pyridyl)-4-hydroxy-1,5,5-trimethyl-2-oxo-6,7-dihydrocyclopenta[b]pyridine-3-carboxamide], the pEC50 is 8.62. For `CC1CCc2c1c(O)c(C(=O)Nc1ncc(C(F)(F)F)cn1)c(=O)n2C` (stereo not drawn) [Example 32, 4-Hydroxy-1,5-dimethyl-2-oxo-N-[5-(trifluoromethyl)pyrimidin-2-yl]-6,7-dihydro-5H-cyclopenta[b]pyridine-3-carboxamide] the value was 9.07.

With `CC1CCc2c1c(O)c(C(=O)Nc1ncco1)c(=O)n2C` (single isomer, unassigned) [Example 34, 4-Hydroxy-1,5-dimethyl-N-oxazol-2-yl-2-oxo-6,7-dihydro-5H-cyclopenta[b]pyridine-3-carboxamide], the pEC50 was 8.13. Take `CC1CCc2c1cc(C(=O)Nc1nccs1)c(=O)n2C` (single isomer, unassigned) [Example 63, 1,5-Dimethyl-2-oxo-N-thiazol-2-yl-6,7-dihydro-5H-cyclopenta[b]pyridine-3-carboxamide]: the pEC50 was 8.59.

On to `CC1Cc2c(O)c(C(=O)Nc3ncccn3)c(=O)n(C)c2C1` (single isomer, unassigned) [Example 83, 4-Hydroxy-1,6-dimethyl-2-oxo-N-pyrimidin-2-yl-6,7-dihydro-5H-cyclopenta[b]pyridine-3-carboxamide], for which the pEC50 is 6.63. Consider `CC1CCc2c1c(O)c(C(=O)Nc1ncc(Cl)cn1)c(=O)n2C` (single isomer, unassigned) [Example 94, N-(5-Chloropyrimidin-2-yl)-4-hydroxy-1,5-dimethyl-2-oxo-6,7-dihydro-5H-cyclopenta[b]pyridine-3-carboxamide], for which the negative-log EC50 (pEC50) is 9.27. Take `CC1Cc2cc(C(=O)Nc3ncccn3)c(=O)n(C)c2C1` (stereo not drawn) [Example 79, 1,6-Dimethyl-2-oxo-N-pyrimidin-2-yl-6,7-dihydro-5H-cyclopenta[b]pyridine-3-carboxamide]: the pEC50 was 7.69. In the case of `C[C@H]1CCc2c1cc(C(=O)Nc1ccns1)c(=O)n2C` [Example 17, (5S)-N-Isothiazol-5-yl-1,5-dimethyl-2-oxo-6,7-dihydro-5H-cyclopenta[b]pyridine-3-carboxamide], the pEC50 is 8.87. Under `Cn1c2c(c(O)c(C(=O)Nc3ccccc3)c1=O)CC(C)(C)CC2` [Example 110, 4-Hydroxy-1,6,6-trimethyl-2-oxo-N-phenyl-7,8-dihydro-5H-quinoline-3-carboxamide] stands 8.64. Turning to `C[C@H]1CCc2c1cc(C(=O)Nc1nnc(C(F)(F)F)o1)c(=O)n2C` [Example 11, (5S)-1,5-Dimethyl-2-oxo-N-[5-(trifluoromethyl)-1,3,4-oxadiazol-2-yl]-6,7-dihydro-5H-cyclopenta[b]pyridine-3-carboxamide], the pEC50 is 7.19. As for `Cn1c2c(cc(C(=O)Nc3ccccc3)c1=O)COC(C)(C)C2` [Example 51, 1,7,7-Trimethyl-2-oxo-N-phenyl-5,8-dihydropyrano[4,3-b]pyridine-3-carboxamide], the pEC50 was 8.36.

Turning to `CC1CCc2c1cc(C(=O)Nc1ccc(C(F)(F)F)nc1)c(=O)n2C` (stereo not drawn) [Example 6, 1,5-Dimethyl-2-oxo-N-[6-(trifluoromethyl)-3-pyridyl]-6,7-dihydro-5H-cyclopenta[b]pyridine-3-carboxamide], the pEC50 was 8.34.

`Cn1c2c(cc(C(=O)Nc3ncc(F)cn3)c1=O)C(C)(C)CC2` [Example 14, N-(5-Fluoropyrimidin-2-yl)-1,5,5-trimethyl-2-oxo-6,7-dihydrocyclopenta[b]pyridine-3-carboxamide]: the pEC50 is 7.57. Consider `CC1CCc2c1c(O)c(C(=O)Nc1ncc(C(F)(F)F)cn1)c(=O)n2C` (single isomer, unassigned) [Example 98, 4-Hydroxy-1,5-dimethyl-2-oxo-N-[5-(trifluoromethyl)pyrimidin-2-yl]-6,7-dihydro-5H-cyclopenta[b]pyridine-3-carboxamide], for which the pEC50 was 9.47.

As for `C[C@@H]1CCc2c1cc(C(=O)Nc1cnsc1)c(=O)n2C` [Example 20, (5R)-N-Isothiazol-4-yl-1,5-dimethyl-2-oxo-6,7-dihydro-5H-cyclopenta[b]pyridine-3-carboxamide], the pEC50 is 8.28. Regarding `Cn1c2c(cc(C(=O)Nc3ccccc3)c1=O)CCCC2` [Example 104, 1-Methyl-2-oxo-N-phenyl-5,6,7,8-tetrahydroquinoline-3-carboxamide], the pEC50 was 9.30. Regarding `C[C@H]1CCc2c1cc(C(=O)Nc1ncco1)c(=O)n2C` [Example 75, (5S)-1,5-Dimethyl-N-oxazol-2-yl-2-oxo-6,7-dihydro-5H-cyclopenta[b]pyridine-3-carboxamide], the pEC50 was 7.75. In the case of `CC1CCc2c1cc(C(=O)Nc1ncc(F)cn1)c(=O)n2C` (stereo not drawn) [Example 1, N-(5-Fluoropyrimidin-2-yl)-1,5-dimethyl-2-oxo-6,7-dihydro-5H-cyclopenta[b]pyridine-3-carboxamide], the pEC50 is 8.01. For `C[C@@H]1CCc2c1cc(C(=O)Nc1ccns1)c(=O)n2C` [Example 16, (5R)-N-Isothiazol-5-yl-1,5-dimethyl-2-oxo-6,7-dihydro-5H-cyclopenta[b]pyridine-3-carboxamide] the value was 8.87; for `CC1CCc2c1cc(C(=O)Nc1ccc(F)cn1)c(=O)n2C` (single isomer, unassigned) [Example 57, N-(5-Fluoro-2-pyridyl)-1,5-dimethyl-2-oxo-6,7-dihydro-5H-cyclopenta[b]pyridine-3-carboxamide], 8.74; for `Cn1c2c(cc(C(=O)Nc3ccccc3)c1=O)CC(C)(C)C2` [Example 47, 1,6,6-Trimethyl-2-oxo-N-phenyl-5,7-dihydrocyclopenta[b]pyridine-3-carboxamide], 9.10.

With `CC1CCc2c1c(O)c(C(=O)Nc1cnsc1)c(=O)n2C` (single isomer, unassigned) [Example 41, 4-Hydroxy-N-isothiazol-4-yl-1,5-dimethyl-2-oxo-6,7-dihydro-5H-cyclopenta[b]pyridine-3-carboxamide], the pEC50 was 8.58.

In the case of `CC1CCc2c1cc(C(=O)Nc1nccs1)c(=O)n2C` (stereo not drawn) [Example 15, 1,5-Dimethyl-2-oxo-N-thiazol-2-yl-6,7-dihydro-5H-cyclopenta[b]pyridine-3-carboxamide], the pEC50 is 8.71.

Consider `C[C@@H]1CCc2c1cc(C(=O)Nc1ccccn1)c(=O)n2C` [Example 23, (5R)-1,5-Dimethyl-2-oxo-N-(2-pyridyl)-6,7-dihydro-5H-cyclopenta[b]pyridine-3-carboxamide], for which the pEC50 was 7.94. Regarding `Cn1c2c(cc(C(=O)Nc3ncccn3)c1=O)C(C)(C)CC2` [Example 46, 1,5,5-Trimethyl-2-oxo-N-pyrimidin-2-yl-6,7-dihydrocyclopenta[b]pyridine-3-carboxamide], the pEC50 is 7.50. For the compound `CC1CCc2c1cc(C(=O)Nc1ncccn1)c(=O)n2C` (single isomer, unassigned) [Example 80, 1,5-Dimethyl-2-oxo-N-pyrimidin-2-yl-6,7-dihydro-5H-cyclopenta[b]pyridine-3-carboxamide], the pEC50 is 7.96.

Take `CC1CCc2c1cc(C(=O)Nc1ncc(C(F)(F)F)cn1)c(=O)n2C` (single isomer, unassigned) [Example 65, 1,5-Dimethyl-2-oxo-N-[5-(trifluoromethyl)pyrimidin-2-yl]-6,7-dihydro-5H-cyclopenta[b]pyridine-3-carboxamide]: the pEC50 is 8.91.

The values above are taken from patent US12037322B2, “AHR agonists” (Eli Lilly and Company, priority 2021, dated 2024).
